Here are results for two compounds from patent US4348410A, “Cyclohexane carboxylic acid derivatives” (Nippon Chemiphar Co., Ltd., priority 1979, dated 1982).

Assay [1] has as its system carrageenin-induced inflammation. Kind of assay: Carrageenin-induced inflammation. Particulars: Rattus norvegicus, ip, read-out: ED50, inhibition of carrageenin-induced inflammation.
For assay [2], the target named is T1, trypsin (Bos taurus, UniProt P00760).
T1 sequence (P00760 24-246): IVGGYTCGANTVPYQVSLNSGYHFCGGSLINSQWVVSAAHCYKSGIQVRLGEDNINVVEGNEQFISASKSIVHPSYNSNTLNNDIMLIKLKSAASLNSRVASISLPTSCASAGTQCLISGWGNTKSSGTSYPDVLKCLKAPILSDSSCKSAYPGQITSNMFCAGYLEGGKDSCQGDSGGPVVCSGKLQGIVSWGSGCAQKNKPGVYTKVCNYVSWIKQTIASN
In words: Inhibitory effects on trypsin (hydrolysis of p-tosylarginine methyl ester). It is filed as biochemical. As to conditions: 37° C., 10 minutes; concentration not given. On the procedure: In particular, inhibitory effects of the compounds on hydrolysis of p-tosylarginine methyl ester by trypsin were examined (incubated at 37° C. for 10 minutes).

In assay [3] the target is chymotrypsin (Bos taurus, UniProt P00766). In words: Inhibitory effects on chymotrypsin (hydrolysis of N-acetyl-L-tyrosine ethyl ester). It is filed as biochemical. Particulars: 37° C., 10 minutes; concentration not given. The procedure: The compounds of the formula (I) have excellent inhibitory effects on protease. The inhibitory effects were determined by the following methods: Inhibitory effects on the compounds of chymotrypsin were determined according to the method described by M. […] In particular, inhibitory effects of the compounds on hydrolysis of N-acetyl-L-tyrosine ethyl ester by chymotrypsin were examined (incubated at 37° C. for 10 minutes).

For assay [4], the target named is thrombin (Bos taurus, UniProt P00735). Kind of assay: Inhibitory effects on thrombin (hydrolysis of p-tosylarginine methyl ester). The assay is classed as biochemical. Particulars: 37° C., 10 minutes; concentration not given. On the procedure: The compounds of the formula (I) have excellent inhibitory effects on protease. The inhibitory effects were determined by the following methods:
Inhibitory effects of the compounds on thrombin were determined according to the method described by M. Muramatsu et al (The Journal of Biochemistry, Volume 65 (1), 17 (1969)). In particular, inhibitory effects of the compounds on hydrolysis of p-tosylarginine methyl ester by thrombin were examined (incubated at 37° C. for 10 minutes).

The target in assay [5] is urokinase (Homo sapiens, UniProt P00749). Kind of assay: Inhibitory effects on urokinase (hydrolysis of N-acetylglycyl lysine methyl ester). It is filed as biochemical. As to conditions: 37° C., 10 minutes; concentration not given. The procedure:
The compounds of the formula (I) have excellent inhibitory effects on protease. The inhibitory effects were determined by the following methods: Inhibitory effects of the compounds on urokinase were determined according to the method described by A. J. Joeson et al (Throm. […]. 21, 259-272 (1969)). In particular, inhibitory effects of the compounds on hydrolysis of N-acetylglycyl lysine methyl ester by urokinase were determined (incubated at 37° C. for 10 minutes).

For assay [6], the system named is Shay ulcers. Kind of assay: Shay ulcers (pylorus ligation). The assay is classed as in vivo, Male Sprague-Dawley strain rats. Particulars: 400 mg/kg i.p. The procedure: The rats were sacrificed 18 hours later by an overdose of ether and the stomach removed. The stomach was incised along the greater curvature and the surface area of each lesion in forestomach was measured by the naked eye. […] 4=many ulcers of marked size 5=perforated ulcer The test drugs were given intraperitoneally, immediately after pylorus ligation.

For assay [7], the system named is ileum of a guinea pig. Kind of assay: Anti-histamine effect: contraction of ileum induced by histamin dihydrochloride. Particulars: 1~5 μg; 10^-6 g/ml histamin dihydrochloride.
Assay [8] deals with ileum of a guinea pig, sensitized with egg albumin. Kind of assay: Contraction of ileum of a guinea pig sensitized with egg albumin, antigen-induced. As to conditions: 0.50 μg; with 250 μg/ml egg albumin as antigen.

Each structure is given as a SMILES string.

For `N=C(N)NC[C@H]1CC[C@H](C(=O)Oc2ccccc2)CC1`, the ED50 in assay [1] is approximately 200 mg/kg.
Take `Cl.N=C(N)NC[C@H]1CC[C@H](C(=O)Oc2ccccc2)CC1` [Compound 3]: the “Inhibition (%) Trypsin” value in assay [2] is given as 42%. Moreover, in assay [3], the “Inhibition (%) Chymotrypsin” value is listed as 48%. Besides, the “Inhibition (%) Thrombin” value in assay [4] is 30%. In assay [5], the “Inhibition (%) Urokinase” value is on record as 52%. In assay [6] (0=no lesion), the “Ulcer Grade 0 (number of rats)” value amounted to 11. For the same compound, in assay [6] (1=hemorrhagic suffusion), the “Ulcer Grade 1 (number of rats)” value is on record as 4. In assay [6] (2=1-5 small ulcers (<3 mm)), the “Ulcer Grade 2 (number of rats)” value was 5. Further, the “Ulcer Grade 3 (number of rats)” value in assay [6] (3=many small ulcers (more than 5) or 1 ulcer of marked size) is given as 0. Further, the “Ulcer Grade 4 (number of rats)” value in assay [6] (4=many ulcers of marked size) amounted to 0. Further, in assay [6] (5=perforated ulcer), the “Ulcer Grade 5 (number of rats)” value is given as 0. Further, in assay [7], the “inhibition of the contraction of the ileum induced by histamin dihydrochloride” value was “inhibited completely”. Further, the “inhibition of the contraction of the ileum sensitized with egg albumin” value in assay [8] is on record as “inhibited completely”.

The term ED50 denotes the midpoint of the dose-response relation.
